Test results reported in paper PMC12697872, “Rethinking the AI Paradigm for Solubility Prediction of Drug‑Like Compounds with Dual‐Perspective Modeling and Experimental Validation” (Advanced Science, 2025).
Like-named read-outs stand apart in the source and are kept apart here.

Legend:
[1] = cited from earlier work
[2] = CASR-2 dataset, aqueous solubility class 0-6; cited from earlier work
[3] = 1H NMR on the saturated aqueous solution; type: physicochemical
Procedure: Each compound was tested in triplicate to ensure accuracy.

[4] = cited from earlier work; for LogS(mol/L): SC2-2 dataset (Second Solubility Challenge, loose subset), aqueous solubility; for Class: SC2-2 dataset, aqueous solubility class 0-6

SMILES | LogS(mol/L) [4] [mol/L] | Class [4] | other results
[2H]c1c([2H])c([2H])c2c(c1[2H])C([2H])([2H])C([2H])([2H])C([2H])([2H])C2([2H])[2H] |  |  | LogS ([1]; CASR-1 curated training data, aqueous, 25 ± 2 °C): -0.8582 mol/L; LogS(mol/L) ([1]; sheet Uncurated data, compiled records): -0.8582 mol/L; Class [2]: 3 (Sparingly soluble (3))
CCCC(=O)OC[C@@H](OC(=O)CCC)[C@@H](OC(=O)CCC)[C@H](Cn1c2nc(=O)[nH]c(=O)c-2nc2cc(C)c(C)cc21)OC(=O)CCC [riboflavin tetrabutyrate] |  |  | Solute in saturated aqueous solution by 1H NMR [3]: no existence of solute in the solution
CCN(CC)CCOC(=O)c1ccc(N)cc1 [CCN(CC)CCOC(=O)c1ccc(N)cc1] | -2.3 | 4 (Slightly soluble (4)) | 
CC#C[C@]1(O)CC[C@H]2[C@@H]3CCC4=CC(=O)CCC4=C3[C@@H](c3ccc(N(C)C)cc3)C[C@@]21C | -5.22 | 6 (Practically insoluble or insoluble (6)) | 
CC(C)C[C@H]1C(=O)N2CCC[C@H]2[C@]2(O)O[C@](NC(=O)[C@@H]3C=C4c5cccc6[nH]c(Br)c(c56)C[C@H]4N(C)C3)(C(C)C)C(=O)N12 | -5.5 | 6 (Practically insoluble or insoluble (6)) | 
COc1cc(/C=C/C(=O)CC(=O)/C=C/c2ccc(O)c(OC)c2)ccc1O | -5.36 | 6 (Practically insoluble or insoluble (6)) | 
c1ccc2[nH]c(-c3cscn3)nc2c1 [c1ccc2[nH]c(-c3cscn3)nc2c1] |  | 6 (Practically insoluble or insoluble (6)) | 
CCC(C)n1ncn(-c2ccc(N3CCN(c4ccc(OC[C@H]5CO[C@](Cn6cncn6)(c6ccc(Cl)cc6Cl)O5)cc4)CC3)cc2)c1=O (some centres unmarked) | -8.98 | 6 (Practically insoluble or insoluble (6)) | 
CCCc1nc2c(C)cc(-c3nc4ccccc4n3C)cc2n1Cc1ccc(-c2ccccc2C(=O)O)cc1 | -6.73 | 6 (Practically insoluble or insoluble (6)) | 
O=C(O)c1cc(-c2ccc(F)cc2F)ccc1O [O=C(O)c1cc(-c2ccc(F)cc2F)ccc1O] | -4.99 | 6 (Practically insoluble or insoluble (6)) | 
Clc1ccc(COC(Cn2ccnc2)c2ccc(Cl)cc2Cl)c(Cl)c1 (centres unmarked) | -5.82 | 6 (Practically insoluble or insoluble (6)) | 
CO[C@]12CC[C@@]3(C[C@@H]1[C@@](C)(O)C(C)(C)C)[C@H]1Cc4ccc(O)c5c4[C@@]3(CCN1CC1CC1)[C@H]2O5 | -6.07 | 6 (Practically insoluble or insoluble (6)) | 
COc1ccc2[nH]c([S+]([O-])Cc3ncc(C)c(OC)c3C)nc2c1 (centres unmarked) | -3.7 | 6 (Practically insoluble or insoluble (6)) | 
CC[C@]1(c2ccccc2)OC[C@H]([C@@H]2CCCCN2)O1 | -1.96 | 4 (Slightly soluble (4)) | 
COC1C=COC2(C)Oc3c(C)c(O)c4c(c3C2=O)C2=NC3(CCN(CC(C)C)CC3)NC2=C(NC(=O)C(C)=CC=CC(C)C(O)C(C)C(O)C(C)C(OC(C)=O)C1C)C4=O (centres unmarked) | -4.09 | 6 (Practically insoluble or insoluble (6)) | 
